Values after ≈ are worked out from the molar mass of the structure shown.
What was measured:
S. typhi (772) = experiment: Gram differentiation with CTAB, tester bacteria luminescence; assay type: cell-based; settings: +CTAB (3 ppm), 2 hrs 37 C, read after 60 min
Experimental: (§1) Gram-positive bacteria are more sensitive than Gram-negative bacteria to low concentrations of the cationic detergent CTAB. Overnight grown cultures of different strains of infecting bacteria were washed and suspended in saline. About 10^5 cells/well were aliquoted in 0.1 mL Medium 1 (Davis, 0.1% glucose, 25 ppm YE) in microtiter plates with or without 3 ppm of CTAB. After 2 hrs at 37 degrees Centigrade/Celsius?, 0.15 mL of Medium 2 (+10 ng/mL autoinducer) were added to each well, together with 10^6 cells/mL lux-cells. Luminescence was recorded after 60 min.

E. coli (W4100) = experiment: as above; assay type: cell-based; settings: +CTAB (3 ppm), 2 hrs 37 C, read after 60 min
Experimental: as §1

Streptococcus sp. = experiment: as above; assay type: cell-based; settings: +CTAB (3 ppm), 2 hrs 37 C, read after 60 min
Experimental: as §1

P. aeroginosa [1] = experiment: as above; assay type: cell-based; settings: +CTAB (3 ppm), 2 hrs 37 C, read after 60 min
Experimental: as §1

S. aureus [2] = experiment: as above; assay type: cell-based; settings: +CTAB (3 ppm), 2 hrs 37 C, read after 60 min
Experimental: as §1

S. aureus [3] = experiment: BLT (bioluminescence test) MIC determination
[4] = system: infecting bacteria of urine samples; experiment: BLT antibiotic susceptibility of urine samples; assay type: cell-based; set-up: BLT (luminescence): unit not given here; settings: for BLT (luminescence): 3 hrs 37 C, concentrations given in Table 5; for antibiotic susceptibility of urine samples: key: R = resistant; S = susceptible
Experimental: Six fresh urine samples were obtained from a local clinic and examined for bacteriuria (>10^5 cells/mL urine) and the antibiotic susceptibility of the infecting bacteriuria. A tube containing a an antibiotic mixture that would eliminate all infecting bacteria but not effect the lux cells (Ampicillin, Kanamycin, Tetracyclin, and Chloramphenicol) served as a control.
Each urine sample was diluted in Medium 1 to yield a final concentration of 3%. 0.1 mL of the diluted samples were then incubated for 3 hrs. at 37 degrees Celsius in a microtitre plate, with or without an antimicrobial substance at the concentrations given in Table 5).
An equal volume of Medium 2 containing 10 ng/ml autoinducer and supplemented with 10^6 of the lux cells was then added to each well. The microtiter plate was then incubated at 28 degrees/Celsius and the luminescence was measured using a plate reader luminometer.
Luminescence was measured in the absence of antibiotics, in the presence of a mixture of antibiotics and in the presence of a single antibiotic from the mixture.
When the ratio of the luminescence measured in the presence of the single antibiotic to that measured in the presence of the antibiotic mix exceeds a second predetermined constant (e.g. 3) then the infecting bacteria are […] to the antibiotic.

[5] = system: infecting bacteria of urine samples; experiment: antibiotics disc inhibition zone, urine samples (standard analysis); assay type: cell-based
Experimental: A standard analysis (urine culture colony count) was performed to evaluate bacterial load (Table 5a) and antibiotic susceptibility (Table 5b).

S. typhi = experiment: microbe, parasite or virus in culture; assay type: cell-based
S. typhimirium (772) = experiment: overnight disk diffusion test; assay type: cell-based; settings: 16 hrs 37 C
Experimental: (§2) Infecting bacteria (10^6 cells/ml from overnight grown cultures) were spread on LA plates on which 15 mm disks, saturated with various antibiotics, had been placed. After incubating the plates at 37 degrees Celsius for 16 hrs the zone of inhibition was determined for each strain. (Abbreviations used in FIG. 1a and Table 1a: CAP—Chloramphenicol; KAN—Kanamycin; AMP—Ampicillin; CEP—Cephamezin GEN—Gentamycin).

E. coli (W4110) = experiment: overnight disk diffusion test; assay type: cell-based; settings: 16 hrs 37 C
Experimental: as §2

P. aeroginosa [6] = experiment: overnight disk diffusion test; assay type: cell-based; settings: 16 hrs 37 C
Experimental: as §2

Row | Compound | LU, fold increase over control (no antibiotics added) (S. aureus [3]; 0.781 ppm) | LU, fold increase over control (no antibiotics added) (S. aureus [3]; 1.562 ppm) | LU, fold increase over control (no antibiotics added) (S. aureus [3]; 3.125 ppm) | LU, fold increase over control (no antibiotics added) (S. aureus [3]; 6.25 ppm) | LU, fold increase over control (no antibiotics added) (S. aureus [3]; 12.5 ppm) | LU, fold increase over control (no antibiotics added) (S. aureus [3]; 25 ppm) | LU, fold increase over control (no antibiotics added) (S. aureus [3]; 50 ppm) | antibiotic susceptibility of urine samples ([4]; urine sample 1) | BLT (luminescence) ([4]; urine sample 1, 3% urine) | antibiotic susceptibility of urine samples ([4]; urine sample 2) | BLT (luminescence) ([4]; urine sample 2, 3% urine) | antibiotic susceptibility of urine samples ([4]; urine sample 3) | BLT (luminescence) ([4]; urine sample 3, 3% urine) | antibiotic susceptibility of urine samples ([4]; urine sample 4) | BLT (luminescence) ([4]; urine sample 4, 3% urine) | antibiotic susceptibility of urine samples ([4]; urine sample 5) | BLT (luminescence) ([4]; urine sample 5, 3% urine) | antibiotic susceptibility of urine samples ([4]; urine sample 6) | BLT (luminescence) ([4]; urine sample 6, 3% urine) | other results
1 | CCCCCCCCCCCCCCCC[N+](C)(C)C.[Br-] [CTAB, Cetyltrimethylammonium bromide] | – | – | – | – | – | – | – | – | – | – | – | – | – | – | – | – | – | – | – | luminescence of tester bacteria (S. typhi (772)): 64 LU; luminescence of tester bacteria (E. coli (W4100)): 52 LU; luminescence of tester bacteria (Streptococcus sp.): 10,154 LU; luminescence of tester bacteria (P. aeroginosa [1]): 111 LU; luminescence of tester bacteria (S. aureus [2]): 80,405 LU
2 | O=C(N[C@H](CO)[C@H](O)c1ccc([N+](=O)[O-])cc1)C(Cl)Cl [Chloramphenicol] | 0.8 | 1.3 | 2.8 | 5.2 | 7.2 | 11.5 | 17.6 | S | 62 | S | 46 | S | 36 | S | 31.2 | S | 13 | S | 41 | LU, fold increase over control (no antibiotics added) (S. aureus [3]; 100 ppm): 70.1; MIC (S. aureus [3]; Staphylococcus aureus): ~1.5 µg/mL (≈ 4.64 µM); Antibiotics disc inhibition zone ([5]; urine sample 1, 30 ppm): 5 mm; Antibiotics disc inhibition zone ([5]; urine sample 2, 30 ppm): 4 mm; Antibiotics disc inhibition zone ([5]; urine sample 3, 30 ppm): 7 mm; Antibiotics disc inhibition zone ([5]; urine sample 4, 30 ppm): 5 mm; Antibiotics disc inhibition zone ([5]; urine sample 6, 30 ppm): 6 mm; LU, fold increase over control (no antibiotics added) (S. typhi; 0.19 ppm): 0.7; LU, fold increase over control (no antibiotics added) (S. typhi; 0.39 ppm): 0.72; LU, fold increase over control (no antibiotics added) (S. typhi; 0.78 ppm): 0.63; LU, fold increase over control (no antibiotics added) (S. typhi; 1.5 ppm): 0.74; LU, fold increase over control (no antibiotics added) (S. typhi; 3.1 ppm): 1.9; LU, fold increase over control (no antibiotics added) (S. typhi; 6.25 ppm): 3.61; LU, fold increase over control (no antibiotics added) (S. typhi; 12.5 ppm): 5.42; LU, fold increase over control (no antibiotics added) (S. typhi; 25 ppm): 6.84; LU, fold increase over control (no antibiotics added) (S. typhi; 50 ppm): 5.84; MIC (S. typhi; Salmonella enterica, TYPHI, lowest concentration giving two-fold increase of tester luminescence above control): ~3 µg/mL (≈ 9.28 µM); zone of inhibition (S. typhimirium (772); disk 30 ppm): 30 mm; zone of inhibition (E. coli (W4110); disk 30 ppm): 25 mm; zone of inhibition (P. aeroginosa [6]; disk 30 ppm): 15 mm
3 | Gentamycin [Gentamicin] | 1.2 | 1.3 | 1.5 | 3.1 | 3.6 | 3.4 | 6.5 | S | 53 | S | 44 | S | 30 | S | 36 | S | 11.5 | S | 35 | LU, fold increase over control (no antibiotics added) (S. aureus [3]; 0.39 ppm): 1.2; MIC (S. aureus [3]; lowest concentration giving two-fold increase of tester luminescence above control): 3.12-6.2 ppm; Antibiotics disc inhibition zone ([5]; urine sample 1, 10 ppm): 4 mm; Antibiotics disc inhibition zone ([5]; urine sample 2, 10 ppm): 5 mm; Antibiotics disc inhibition zone ([5]; urine sample 3, 10 ppm): 6 mm; Antibiotics disc inhibition zone ([5]; urine sample 4, 10 ppm): 2 mm; Antibiotics disc inhibition zone ([5]; urine sample 6, 10 ppm): 5 mm; zone of inhibition (S. typhimirium (772); disk 10 ppm): 20 mm; zone of inhibition (E. coli (W4110); disk 10 ppm): 15 mm; zone of inhibition (P. aeroginosa [6]; disk 10 ppm): 20 mm

From patent US20110097745A1, “Method For Detecting Microbes” (priority 2007, published 2011)
